Patent publication US5914339A, “Substituted 1,3-benzodioxoles” (American Home Products Corporation, priority 1997, dated 1999)
Structures can show the parent of a compound that is named as a salt.

Molecular target: human β2 adrenergic receptor (Homo sapiens, UniProt P07550)
Test: cell-based
Conditions: 10 min; compounds tested at 10 nM, isoproterenol at 10 μM; CHO cells, 10 min at 37° C; read-out: β2: % of isoproterenol activity (increase in cAMP)
Protocol: The activity of the test compounds on human β-adrenergic receptors was determined with Chinese hamster ovary (CHO) cells transfected with human β2, or β1 adrenergic receptors. Agonist activity is indicated by increased cAMP levels in the CHO cells. Selectivity of the test compounds for the β3 receptor was assessed by comparison with results in β2 and β1 adrenergic receptor transfected cells.
1). Chinese hamster ovary (CHO) cells transfected with human β2, or β1 adrenergic receptors were used in the assay.
2). Cells were grown to confluent conditions in 24 well plates.
3). Drugs were dissolved in DMSO at a concentration of 10 μM.
4). Cells were incubated with drug at 10 nM concentration for 10 min at 37° C.
5). Cell cAMP concentrations were assayed using a scintillation proximity assay kit from Amersham Corp., Chicago, Ill.
6). Activities for the test compounds are expressed as a percentage of the isoproterenol response.
Production of the CHO cells transfected with human β2, or β1 adrenergic receptors, and compound test procedures utilizing the CHO cells, are described by Emorine et al. in their article "Molecular Characterization of the Human Beta3 -Adrenergic Receptor", Science 1989, 245(8), 1118-1121 and by Muzzin et al. in the article "An Adipose Tissue-Specific Beta3 -Adrenergic Receptor", J. Biol. Chem.1991, 266, 24053-24058.
^a Human β receptors expressed in Chinese hamster ovary cells,
compounds tested at 10 nM, results expressed as % of isoproterenol
activity (increase in cAMP) at 10 μM. EC50 (μM) values
determined for selected compounds.

Sequence of human β2 adrenergic receptor (P07550 whole entry): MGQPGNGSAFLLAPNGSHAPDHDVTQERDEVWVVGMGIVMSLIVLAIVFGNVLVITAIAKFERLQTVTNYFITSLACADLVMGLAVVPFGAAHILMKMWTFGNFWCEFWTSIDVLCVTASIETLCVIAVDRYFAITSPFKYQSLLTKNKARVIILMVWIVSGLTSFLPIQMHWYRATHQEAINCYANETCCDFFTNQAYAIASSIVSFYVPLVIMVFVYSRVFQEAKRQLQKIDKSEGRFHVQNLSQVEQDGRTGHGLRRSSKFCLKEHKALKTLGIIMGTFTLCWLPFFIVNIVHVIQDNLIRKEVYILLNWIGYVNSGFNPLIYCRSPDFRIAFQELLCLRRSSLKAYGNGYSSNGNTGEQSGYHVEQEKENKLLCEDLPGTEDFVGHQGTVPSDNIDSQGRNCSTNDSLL

Point of comparison: `C[C@H](Cc1ccc2c(c1)OC(C(=O)OCCCOCc1ccccc1)(C(=O)OCCCOCc1ccccc1)O2)NC[C@H](O)c1cccc(Cl)c1` [Example 104, 5-{(2R)-2-[(2R)-2-(3-Chloro-phenyl)-2-hydroxy-ethylamino]-propyl}benzo[1,3]dioxole-2,2-dicarboxylic acid bis-(3-benzyloxy-propyl)ester], activation at 0.01 µM 2%. Against it:
- CC(Cc1ccc2c(c1)OC(C(=O)OCC1(C)CC1)(C(=O)OCC1(C)CC1)O2)NCC(O)c1cccc(Cl)c1 (centres unmarked) [Example 39, 5-{2-[2-(3-Chloro-phenyl)-2-hydroxy-ethylamino]-propyl}-benzo[1,3]dioxole-2,2-dicarboxylic acid bis-(1-methyl-cyclopropylmethyl) ester] — lower, 1%
- CC(Cc1ccc2c(c1)OC(C(=O)OCCOC(C)(C)C)(C(=O)OCCOC(C)(C)C)O2)NCC(O)c1cccc(Cl)c1 (centres unmarked) [Example 6, 5-{2-[2-(3-Chloro-phenyl)-2-hydroxy-ethylamino]-propyl}-benzo[1,3]dioxole-2,2-dicarboxylic acid bis-(2-tert-butoxy-ethyl) ester] — higher, 3%
- CCCCCCCCOC(=O)C1(C(=O)OCCCCCCCC)Oc2ccc(CC(C)NCC(O)c3cccc(Cl)c3)cc2O1 (centres unmarked) [Example 12, 5-{2-[2-(3-Chloro-phenyl)-2-hydroxy-ethylamino]-propyl}-benzo[1,3]dioxole-2,2-dicarboxylic acid dioctyl ester] — lower, 1%
- CC(C)COCCOC(=O)C1(C(=O)OCCOCC(C)C)Oc2ccc(CC(C)NCC(O)c3cccc(Cl)c3)cc2O1 (centres unmarked) [Example 8, 5-{2-[2-(3-Chloro-phenyl)-2-hydroxy-ethylamino]-propyl}-benzo[1,3]dioxole-2,2-dicarboxylic acid bis-(2-isobutoxy-ethyl) ester] — lower, 1%
- C[C@H](Cc1ccc2c(c1)OC(C(=O)OCC1CCCO1)(C(=O)OCC1CCCO1)O2)NC[C@H](O)c1cccc(Cl)c1 (stereo partly drawn) [Example 91, 5-{(2R)-2-[(2R)-2-(3-Chloro-phenyl)-2-hydroxy-ethylamino]-propyl}-benzo[1,3]dioxole-2,2-dicarboxylic aicd bis-(tetrahydro-furan-2-ylmethyl) ester] — higher, 7%
- CC(Cc1ccc2c(c1)OC(C(=O)OCOC(=O)C(C)(C)C)(C(=O)OCOC(=O)C(C)(C)C)O2)NCC(O)c1cccc(Cl)c1 (centres unmarked) [Example 49, 5-{2-[2-(3-Chloro-phenyl)-2-hydroxyethylamino]propyl}benzo[1,3] dioxole-2,2-dicarboxylic acid bis-(2,2-dimethyl-propionyloxymethyl) ester] — higher, 4%
- CC(=O)OCOC(=O)C1(C(=O)OCOC(C)=O)Oc2ccc(CC(C)NCC(O)c3cccc(Cl)c3)cc2O1 (centres unmarked) [Example 42, 5-{2-[2-(3-Chloro-phenyl)-2-hydroxyethylamino]propyl}benzo[1,3] dioxole-2,2-dicarboxylic acid bis-acetoxymethyl ester] — lower, 0%
- CC(Cc1ccc2c(c1)OC(C(=O)OCCCC1CCCC1)(C(=O)OCCCC1CCCC1)O2)NCC(O)c1cccc(Cl)c1 (centres unmarked) [Example 37, 5-{2-[2-(3-Chloro-phenyl)-2-hydroxy-ethylamino]-propyl}-benzo[1,3]dioxole-2,2-dicarboxylic acid bis-(3-cyclopentyl-propyl) ester] — higher, 3%
- CC(Cc1ccc2c(c1)OC(C(=O)O)(C(=O)O)O2)N1COC(c2cccc(Cl)c2)C1 (centres unmarked) [Example 66] — higher, 3%
- CC(Cc1ccc2c(c1)OC(C(=O)OC(C)OC(=O)C(C)(C)C)(C(=O)OC(C)OC(=O)C(C)(C)C)O2)NCC(O)c1cccc(Cl)c1 (centres unmarked) [Example 52] — the same, 2%
- C[C@H](Cc1ccc2c(c1)OC(C(=O)OC1CCCCCCC1)(C(=O)OC1CCCCCCC1)O2)NC[C@H](O)c1cccc(Cl)c1 [Example 100, 5-{(2R)-2-[(2R)-2-(3-Chloro-phenyl)-2-hydroxy-ethylamino]-propyl}-benzo[1,3]dioxole-2,2-dicarboxylic acid dicyclooctyl ester] — the same, 2%
- CC(Cc1ccc2c(c1)OC(C(=O)OCOC(=O)CC(C)(C)C)(C(=O)OCOC(=O)CC(C)(C)C)O2)NCC(O)c1cccc(Cl)c1 (centres unmarked) [Example 53, 5-{2-[2-(3-Chloro-phenyl)-2-hydroxyethylamino]propyl}benzo[1,3] dioxole-2,2-dicarboxylic acid bis-(3,3-dimethyl-butyryloxymethyl) ester] — the same, 2%
- CCCOC(=O)COC(=O)C1(C(=O)OCC(=O)OCCC)Oc2ccc(CC(C)NCC(O)c3cccc(Cl)c3)cc2O1 (centres unmarked) [Example 25, 5-{2-[2-(3-Chloro-phenyl)-2-hydroxy-ethylamino]-propyl}-benzo[1,3]dioxole-2,2-dicarboxylic acid bis-propoxycarbonylmethyl ester] — higher, 6%
- CC(Cc1ccc2c(c1)OC(C(=O)OCCCl)(C(=O)OCCCl)O2)NCC(O)c1cccc(Cl)c1 (centres unmarked) [Example 73, 5-{2-[2-(3-Chloro-phenyl)-2-hydroxy-ethylamino]-propyl}-benzo[1,3]dioxole-2,2-dicarboxylic acid bis 2-(Chloro)ethyl ester] — lower, 0%
- CCC(=O)OC(C)OC(=O)C1(C(=O)OC(C)OC(=O)CC)Oc2ccc(CC(C)NCC(O)c3cccc(Cl)c3)cc2O1 (centres unmarked) [Example 51, 5-{2-[2-(3-Chloro-phenyl)-2-hydroxyethylamino]propyl}benzo[1,3] dioxole-2,2-dicarboxylic acid bis-(1-propionyloxy-ethyl) ester] — lower, 0%
- CCOC(=O)C(C)OC(=O)C1(C(=O)OC(C)C(=O)OCC)Oc2ccc(CC(C)NCC(O)c3cccc(Cl)c3)cc2O1 (centres unmarked) [Example 29, 5-{2-[2-(3-Chloro-phenyl)-2-hydroxy-ethylamino]-propyl}-benzo[1,3]dioxole-2,2-dicarboxylic acid bis-(1-ethoxycarbonyl-ethyl) ester] — the same, 2%
- C[C@H](Cc1ccc2c(c1)OC(C(=O)OC/C=C\COCc1ccccc1)(C(=O)OC/C=C\COCc1ccccc1)O2)NC[C@H](O)c1cccc(Cl)c1 [Example 101, 5-{(2R)-2-[(2R)-2-(3-Chloro-phenyl)-2-hydroxy-ethylamino]-propyl}-benzo[1,3]dioxole-2,2-dicarboxylic acid bis-(4-benzyloxy-but-2-enyl)ester] — higher, 3%
- CC(Cc1ccc2c(c1)OC(C(=O)O)(C(=O)OCCOC(C)(C)C)O2)NCC(O)c1cccc(Cl)c1 (centres unmarked) [Example 7, 5-{2-[2-(3-Chloro-phenyl)-2-hydroxy-ethylamino]-propyl}-benzo[1,3]dioxole-2,2-dicarboxylic acid (2-tert-butoxy-ethyl) ester] — the same, 2%
- CCCCCCCCCOC(=O)C1(C(=O)OCCCCCCCCC)Oc2ccc(CC(C)NCC(O)c3cccc(Cl)c3)cc2O1 (centres unmarked) [Example 18, 5-{2-[2-(3-Chloro-phenyl)-2-hydroxy-ethylamino]-propyl}-benzo[1,3]dioxole-2,2-dicarboxylic acid dinonyl ester] — higher, 6%
- C[C@H](Cc1ccc2c(c1)OC(C(=O)O)(C(=O)OCC13CC4CC(CC(C4)C1)C3)O2)NC[C@H](O)c1cccc(Cl)c1 (stereo partly drawn) [Example 79, 5-{(2R)-2-[(2R)-2-(3-Chloro-phenyl)-2-hydroxy-ethylamino]-propyl}-benzo[1,3]dioxole-2,2-dicarboxylic acid adamantan-1-ylmethyl ester] — lower, 0%
- COC(=O)C(C)OC(=O)C1(C(=O)OC(C)C(=O)OC)Oc2ccc(CC(C)NCC(O)c3cccc(Cl)c3)cc2O1 (centres unmarked) [Example 26, 5-{2-[2-(3-Chloro-phenyl)-2-hydroxy-ethylamino]-propyl}-benzo[1,3]dioxole-2,2-dicarboxylic acid bis-(1-methoxycarbonyl-ethyl) ester] — higher, 7%

Same assay, conditions: CHO, 10 min, read-out: β2: % of isoproterenol activity (increase in cAMP)

Point of comparison: `CCCCOCCOC(=O)C1(C(=O)OCCOCCCC)Oc2ccc(CC(C)NCC(O)c3cccc(Cl)c3)cc2O1` (centres unmarked) [Example 3, 5-{2-[2-(3-Chloro-phenyl)-2-hydroxy-ethylamino]-propyl}-benzo[1,3]dioxole-2,2-dicarboxylic acid bis-(2-butoxy-ethyl) ester hydrochloride salt], activation at 0.01 µM 0%. Against it:
- CC(Cc1ccc2c(c1)OC(C(=O)OCCOc1ccccc1)(C(=O)OCCOc1ccccc1)O2)NCC(O)c1cccc(Cl)c1 (centres unmarked) [Example 4, 5-{2-[2-(3-Chloro-phenyl)-2-hydroxy-ethylamino]-propyl}-benzo[1,3]dioxole-2,2-dicarboxylic acid bis-(2-phenoxy-ethyl) ester hydrochloride salt] — higher, 1%
- CC(Cc1ccc2c(c1)OC(C(=O)OC[Si](C)(C)C)(C(=O)OC[Si](C)(C)C)O2)NCC(O)c1cccc(Cl)c1 (centres unmarked) [Example 30, 5-{2-[2-(3-Chloro-phenyl)-2-hydroxy-ethylamino]-propyl}-benzo[1,3]dioxole-2,2-dicarboxylic acid bis-trimethylsilanylmethyl ester] — the same, 0%
- Cc1cccc(CCOC(=O)C2(C(=O)OCCc3cccc(C)c3)Oc3ccc(C[C@@H](C)NC[C@H](O)c4cccc(Cl)c4)cc3O2)c1 [Example 97, 5-{(2R)-2-[(2R)-2-(3-Chloro-phenyl)-2-hydroxy-ethylamino]-propyl}-benzo[1,3]dioxole-2,2-dicarboxylic acid bis-(2-m-tolyl-ethyl) ester hydrochloride salt] — higher, 4%
